# In PubChem BioAssay AID246 (DTP/NCI, 2004):
# Several values for one entry are separate records, joined by “and”; a condition that tells them apart may be missing. Equal entries are not always repeated. Inconclusive results and toxic doses are left out. Numbered stars: 1 amine (or outer) side, 2 acyl side, 3 side chain; on linkers, the order of the positions; unused ones are H or OH. Bridge positions count the residues as written; N and C are the ends. Square brackets hold non-standard residues; d marks the D form. Peptide text beside a SMILES is read from it. I, II: the chains in the order shown. Actinocin(9to1) = Cc1c2oc3c(C)ccc(C(=O)[*:1])c3nc-2c(C(=O)[*:2])c(N)c1=O; aThr = C[C@H](O)[C@H](N)C(=O)O; NMeV = CN[C@H](C(=O)O)C(C)C; Sar = CNCC(=O)O
# System: BDF1 mice, P1081 chloroleukemia ip, survival T/C
# Assay: NCI In Vivo Anticancer Drug Screen. Data for tumor model P1081 Chloroleukemia (intraperitoneal) in B6D2F1 (BDF1) mice
# Conditions: endpoint: mean survival time, higher = longer survival
# Method: The antitumor activity of compounds was measured in mice bearing transplantable tumors. Survival or tumor size were measured and the results are expressed as the measurement made in the treated group (T) divided by the measurement made in the vehicle treated control group (C). The tumor model used in this assay is P1081 Chloroleukemia (intraperitoneal) in B6D2F1 (BDF1) mice
# [1] = dose: 8.0 mg/kg/injection, schedule: Q01DX010 (ip), vehicle: saline
# [2] = dose: 16.0 mg/kg/injection, schedule: Q01DX010 (ip), vehicle: saline
# [3] = dose: 100.0 mg/kg/injection, schedule: Q01DX010 (ip), vehicle: saline
structure (smiles),measurement,setting,value
Cc1cc(N(CCCl)CCCl)ccc1N=Nc1ccccc1C(=O)O,T/C,"dose: 5.0 mg/kg/injection, schedule: Q01DX010 (ip), vehicle: saline",105 % of control
same,T/C,"dose: 7.5 mg/kg/injection, schedule: Q01DX Z (ip), vehicle: carboxymethylcellulose (CMC)",101 % of control
same,T/C,"dose: 10.0 mg/kg/injection, schedule: Q01DX010 (ip), vehicle: saline",110 % of control and 95 % of control
same,T/C,"dose: 15.0 mg/kg/injection, schedule: Q01DX Z (ip), vehicle: carboxymethylcellulose (CMC)",104 % of control
same,T/C,"dose: 20.0 mg/kg/injection, schedule: Q01DX010 (ip), vehicle: saline",110 % of control and 90 % of control
same,T/C,"dose: 30.0 mg/kg/injection, schedule: Q01DX Z (ip), vehicle: carboxymethylcellulose (CMC)",104 % of control
same,T/C,"dose: 40.0 mg/kg/injection, schedule: Q01DX010 (ip), vehicle: saline",110 % of control
CC(=O)O[C@]1(C(C)=O)CC[C@H]2[C@@H]3C[C@H](C)C4=CC(=O)C=C[C@]4(C)[C@@]3(F)[C@@H](O)C[C@@]21C,T/C,"dose: 2.5 mg/kg/injection, schedule: Q01DX Z (sc), vehicle: steriod suspending solution",100 % of control
same,T/C,"dose: 5.0 mg/kg/injection, schedule: Q01DX Z (sc), vehicle: steriod suspending solution",108 % of control
same,T/C,"dose: 10.0 mg/kg/injection, schedule: Q01DX Z (sc), vehicle: steriod suspending solution",107 % of control
same,T/C,"dose: 12.5 mg/kg/injection, schedule: Q01DX010 (sc), vehicle: steriod suspending solution",105 % of control and 100 % of control
same,T/C,"dose: 20.0 mg/kg/injection, schedule: Q01DX Z (sc), vehicle: steriod suspending solution",108 % of control
same,T/C,"dose: 25.0 mg/kg/injection, schedule: Q01DX010 (sc), vehicle: steriod suspending solution",100 % of control
same,T/C,"dose: 40.0 mg/kg/injection, schedule: Q01DX Z (sc), vehicle: steriod suspending solution",116 % of control
same,T/C,"dose: 50.0 mg/kg/injection, schedule: Q01DX010 (sc), vehicle: steriod suspending solution",90 % of control and 95 % of control
same,T/C,"dose: 100.0 mg/kg/injection, schedule: Q01DX010 (sc), vehicle: steriod suspending solution",90 % of control and 100 % of control
same,T/C,"dose: 160.0 mg/kg/injection, schedule: Q01DX Z (sc), vehicle: steriod suspending solution",105 % of control
same,T/C,"dose: 320.0 mg/kg/injection, schedule: Q01DX Z (sc), vehicle: steriod suspending solution",93 % of control
Cn1cnc([N+](=O)[O-])c1Sc1nc(N)nc2nc[nH]c12,T/C,"dose: 0.25 mg/kg/injection, schedule: Q01DX Z (ip), vehicle: carboxymethylcellulose (CMC)",90 % of control
same,T/C,"dose: 0.5 mg/kg/injection, schedule: Q01DX Z (ip), vehicle: carboxymethylcellulose (CMC)",110 % of control
same,T/C,"dose: 1.0 mg/kg/injection, schedule: Q01DX Z (ip), vehicle: carboxymethylcellulose (CMC)",111 % of control
same,T/C,"dose: 2.0 mg/kg/injection, schedule: Q01DX Z (ip), vehicle: carboxymethylcellulose (CMC)",110 % of control
same,T/C,"dose: 8.0 mg/kg/injection, schedule: Q01DX Z (ip), vehicle: carboxymethylcellulose (CMC)",86 % of control
CN1CC[C@]23c4c5ccc(O)c4O[C@H]2C(=O)CC[C@H]3[C@H]1C5,T/C,"dose: 2.0 mg/kg/injection, schedule: Q01DX010 (ip), vehicle: saline",105 % of control
same,T/C,"dose: 4.0 mg/kg/injection, schedule: Q01DX010 (ip), vehicle: saline",90 % of control and 100 % of control
same,T/C,[1],90 % of control and 105 % of control
same,T/C,[2],90 % of control and 100 % of control
O=C1CCC(N2C(=O)c3ccccc3C2=O)C(=O)N1 (stereo not drawn),T/C,"dose: 18.75 mg/kg/injection, schedule: Q01DX Z (ip), vehicle: carboxymethylcellulose (CMC)",89 % of control
same,T/C,"dose: 37.5 mg/kg/injection, schedule: Q01DX Z (ip), vehicle: carboxymethylcellulose (CMC)",98 % of control
same,T/C,"dose: 75.0 mg/kg/injection, schedule: Q01DX Z (ip), vehicle: carboxymethylcellulose (CMC)",94 % of control
same,T/C,"dose: 150.0 mg/kg/injection, schedule: Q01DX Z (ip), vehicle: carboxymethylcellulose (CMC)",94 % of control
COc1cc2c(cc1I)-c1c(cc(OC)c(OC)c1OC)CC[C@@H]2NC(C)=O,T/C,"dose: 45.0 mg/kg/injection, schedule: Q01DX010 (ip), vehicle: saline",120 % of control
same,T/C,"dose: 67.0 mg/kg/injection, schedule: Q01DX010 (ip), vehicle: saline",115 % of control
same,T/C,[3],115 % of control
same,T/C,"dose: 150.0 mg/kg/injection, schedule: Q01DX010 (ip), vehicle: saline",111 % of control and 115 % of control
same,T/C,"dose: 225.0 mg/kg/injection, schedule: Q01DX010 (ip), vehicle: saline",100 % of control
c1ccc(CNc2ncnc3[nH]ncc23)cc1,T/C,"dose: 0.98 mg/kg/injection, schedule: Q01DX Z (ip), vehicle: carboxymethylcellulose (CMC)",93 % of control
same,T/C,"dose: 1.95 mg/kg/injection, schedule: Q01DX Z (ip), vehicle: carboxymethylcellulose (CMC)",94 % of control
same,T/C,"dose: 3.9 mg/kg/injection, schedule: Q01DX Z (ip), vehicle: carboxymethylcellulose (CMC)",93 % of control
same,T/C,"dose: 7.8 mg/kg/injection, schedule: Q01DX Z (ip), vehicle: carboxymethylcellulose (CMC)",112 % of control
same,T/C,[1],111 % of control
same,T/C,[2],111 % of control and 116 % of control
same,T/C,"dose: 32.0 mg/kg/injection, schedule: Q01DX010 (ip), vehicle: saline",111 % of control and 122 % of control
same,T/C,"dose: 64.0 mg/kg/injection, schedule: Q01DX010 (ip), vehicle: saline",111 % of control
"Cc1c2oc3c(C)ccc(C(=O)N[C@@H]4C(=O)N[C@H](C(C)C)C(=O)N5CCC[C@H]5C(=O)N(C)CC(=O)N(C)[C@@H](C(C)C)C(=O)O[C@H]4C)c3nc-2c(C(=O)N[C@@H]2C(=O)N[C@H](C(C)C)C(=O)N3CCC[C@H]3C(=O)N(C)CC(=O)N(C)[C@@H](C(C)C)C(=O)O[C@H]2C)c(N)c1=O (I: [aThr][dV]P[Sar][NMeV] / II: [aThr][dV]P[Sar][NMeV]; ester I:1-I:C, II:1-II:C; linker I:N-II:N via Actinocin(9to1))",T/C,"dose: 0.7 micrograms/kg/injection, schedule: Q01DX Z (ip), vehicle: saline",103 % of control
same,T/C,"dose: 1.5 micrograms/kg/injection, schedule: Q01DX Z (ip), vehicle: saline",94 % of control
same,T/C,"dose: 6.2 micrograms/kg/injection, schedule: Q01DX Z (ip), vehicle: saline",110 % of control
same,T/C,"dose: 12.5 micrograms/kg/injection, schedule: Q01DX010 (ip), vehicle: other",155 % of control
same,T/C,"dose: 25.0 micrograms/kg/injection, schedule: Q01DX010 (ip), vehicle: other",190 % of control and 205 % of control
same,T/C,"dose: 25.0 micrograms/kg/injection, schedule: Q01DX Z (ip), vehicle: saline",119 % of control
same,T/C,"dose: 50.0 micrograms/kg/injection, schedule: Q01DX010 (ip), vehicle: other",180 % of control and 245 % of control
same,T/C,"dose: 50.0 micrograms/kg/injection, schedule: Q01DX Z (ip), vehicle: saline",104 % of control
same,T/C,"dose: 100.0 micrograms/kg/injection, schedule: Q01DX010 (ip), vehicle: other",105 % of control
same,T/C,"dose: 100.0 micrograms/kg/injection, schedule: Q01DX Z (ip), vehicle: saline",102 % of control
C1CN1c1nc(N2CC2)nc(N2CC2)n1,T/C,"dose: 0.03 mg/kg/injection, schedule: Q01DX Z (ip), vehicle: saline",92 % of control
same,T/C,"dose: 0.06 mg/kg/injection, schedule: Q01DX Z (ip), vehicle: saline",107 % of control
same,T/C,"dose: 0.13 mg/kg/injection, schedule: Q01DX010 (ip), vehicle: saline",95 % of control and 100 % of control
same,T/C,"dose: 0.25 mg/kg/injection, schedule: Q01DX010 (ip), vehicle: saline",94 % of control
same,T/C,"dose: 0.25 mg/kg/injection, schedule: Q01DX Z (ip), vehicle: saline",122 % of control and 102 % of control
same,T/C,"dose: 0.5 mg/kg/injection, schedule: Q01DX010 (ip), vehicle: saline",109 % of control
same,T/C,"dose: 0.5 mg/kg/injection, schedule: Q01DX Z (ip), vehicle: saline",121 % of control and 90 % of control
same,T/C,"dose: 1.0 mg/kg/injection, schedule: Q01DX010 (ip), vehicle: saline",88 % of control
same,T/C,"dose: 1.0 mg/kg/injection, schedule: Q01DX Z (ip), vehicle: saline",102 % of control
same,T/C,"dose: 24.0 micrograms/kg/injection, schedule: Q01DX Z (ip), vehicle: saline",89 % of control
same,T/C,"dose: 48.0 micrograms/kg/injection, schedule: Q01DX Z (ip), vehicle: saline",96 % of control
same,T/C,"dose: 95.0 micrograms/kg/injection, schedule: Q01DX Z (ip), vehicle: saline",98 % of control
same,T/C,"dose: 190.0 micrograms/kg/injection, schedule: Q01DX Z (ip), vehicle: saline",89 % of control
CSc1ncnc2nc[nH]c12,T/C,"dose: 6.25 mg/kg/injection, schedule: Q01DX Z (ip), vehicle: carboxymethylcellulose (CMC)",100 % of control
same,T/C,"dose: 12.5 mg/kg/injection, schedule: Q01DX Z (ip), vehicle: carboxymethylcellulose (CMC)",100 % of control
same,T/C,"dose: 25.0 mg/kg/injection, schedule: Q01DX Z (ip), vehicle: carboxymethylcellulose (CMC)",93 % of control
same,T/C,[3],115 % of control
same,T/C,"dose: 200.0 mg/kg/injection, schedule: Q01DX010 (ip), vehicle: saline",120 % of control
same,T/C,"dose: 200.0 mg/kg/injection, schedule: Q01DX Z (ip), vehicle: carboxymethylcellulose (CMC)",114 % of control
